Measurements taken from patent publication US9113629B2, “4-amino-6-(4-substituted-phenyl)-picolinates and 6-amino-2-(4-substituted-phenyl)-pyrimidine-4-carboxylates and their use as herbicides” (DOW AGROSCIENCES LLC, priority 2013, dated 2015).

Assays:
Test in all cases: Post-emergent Test III, herbicidal activity in wheat and barley
Format in all cases: in vivo
Conditions in all cases: Table 8, 21 d
[1] = test system: VERPE: bird's-eye speedwell (veronica persica)
How it was run: (§1)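 GR20, GR50, GR80 and GR90 come from probit analysis of visual injury scores (0 = none, 100 = complete kill) taken 21 d after treatment. Foliar application was by track sprayer delivering 187 L/ha at five rates, from high down to 1/16×, onto greenhouse plants at the 2–3 leaf stage, with solvent-blank controls.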

[2] = test system: PAPRH: common poppy (Papaver rhoeas)
How it was run: as §1

[3] = test system: CIRAR: Canada thistle (Cirsium arvense)
How it was run: as §1

[4] = test system: GALAP: cleavers (Galium aparine)
How it was run: as §1

[5] = test system: SASKR: Russian thistle (Salsola iberica)
How it was run: as §1

[6] = dose for 50 percent growth reduction, probit analysis
[7] = dose for 80 percent growth reduction, probit analysis

Compound: COc1c(N)nc(-c2ccc(I)c(F)c2)nc1C(=O)O [Compound 37, 6-Amino-2-(3-fluoro-4-iodophenyl)-5-methoxypyrimidine-4-carboxylic acid]
- GR50 VERPE [1, 6]: 15 g ai/ha
- GR80 VERPE [1, 7]: 66 g ai/ha
- pest or weed control at 35 g/ha ([1]; Veronica persica, post-emergence, 504 h, 35 g ai/ha, post-emergent, read-out: Visual Growth Reduction (%) 21 Days After Application VERPE): 60 to 74%
- pest or weed control at 70 g/ha ([1]; Veronica persica, post-emergence, 504 h, 70 g ai/ha, post-emergent, read-out: Visual Growth Reduction (%) 21 Days After Application VERPE): 75 to 84%
- pest or weed control at 35 g/ha ([2]; Papaver rhoeas, post-emergence, 504 h, 35 g ai/ha, post-emergent, read-out: Visual Growth Reduction (%) 21 Days After Application PAPRH): 95 to 100%
- pest or weed control at 70 g/ha ([2]; Papaver rhoeas, post-emergence, 504 h, 70 g ai/ha, post-emergent, read-out: Visual Growth Reduction (%) 21 Days After Application PAPRH): 95 to 100%
- GR50 PAPRH [2, 6]: 1 g ai/ha
- GR80 PAPRH [2, 7]: 1 g ai/ha
- pest or weed control at 35 g/ha ([3]; Cirsium arvense, post-emergence, 504 h, 35 g ai/ha, post-emergent, read-out: Visual Growth Reduction (%) 21 Days After Application CIRAR): 45 to 59%
- pest or weed control at 70 g/ha ([3]; Cirsium arvense, post-emergence, 504 h, 70 g ai/ha, post-emergent, read-out: Visual Growth Reduction (%) 21 Days After Application CIRAR): 75 to 84%
- GR50 CIRAR [3, 6]: 23 g ai/ha
- GR80 CIRAR [3, 7]: 103 g ai/ha
- pest or weed control at 35 g/ha ([4]; Galium aparine, post-emergence, 504 h, 35 g ai/ha, post-emergent, read-out: Visual Growth Reduction (%) 21 Days After Application GALAP): 85 to 94%
- pest or weed control at 70 g/ha ([4]; Galium aparine, post-emergence, 504 h, 70 g ai/ha, post-emergent, read-out: Visual Growth Reduction (%) 21 Days After Application GALAP): 95 to 100%
- GR50 GALAP [4, 6]: 14 g ai/ha
- GR80 GALAP [4, 7]: 31 g ai/ha
- pest or weed control at 35 g/ha ([5]; Salsola tragus, post-emergence, 504 h, 35 g ai/ha, post-emergent, read-out: Visual Growth Reduction (%) 21 Days After Application SASKR): 45 to 59%
- pest or weed control at 70 g/ha ([5]; Salsola tragus, post-emergence, 504 h, 70 g ai/ha, post-emergent, read-out: Visual Growth Reduction (%) 21 Days After Application SASKR): 60 to 74%
- GR50 SASKR [5, 6]: 33 g ai/ha
- GR80 SASKR [5, 7]: 104 g ai/ha
